Source: the NIST ThermoML archive (doi:10.1021/je050216m)
Where “and” joins values, the source holds several entries; their conditions need not be identical. Equal entries are not always repeated. Numbers after ± are expanded uncertainties.

Conditions: Crystal, Closed cell (Static) method

c1ccc2ccccc2c1 [naphthalene]
Conditions	vapor or sublimation pressure
258.48 K	0.00011 ± 0.0001 kPa
258.49 K	0.00011 ± 0.0001 kPa
263.48 K	0.00022 ± 0.0001 kPa
263.49 K	0.00023 ± 0.0001 kPa
268.48 K	0.00042 ± 0.0001 kPa and 0.00041 ± 0.0001 kPa and 0.00043 ± 0.0001 kPa
273.48 K	0.00078 ± 0.0001 kPa and 0.00077 ± 0.0001 kPa
273.49 K	0.00078 ± 0.0001 kPa and 0.00077 ± 0.0001 kPa
273.68 K	0.0008 ± 0.0001 kPa and 0.00081 ± 0.0001 kPa
278.48 K	0.00137 ± 0.00012 kPa and 0.00138 ± 0.00012 kPa
278.49 K	0.00138 ± 0.00012 kPa [middle of 4 runs]
283.49 K	0.00241 ± 0.00012 kPa
288.49 K	0.00411 ± 0.00014 kPa and 0.0041 ± 0.00014 kPa
293.49 K	0.00688 ± 0.00016 kPa
298.49 K	0.0114 ± 0.00022 kPa and 0.0113 ± 0.00022 kPa
303.5 K	0.0183 ± 0.00029 kPa and 0.0182 ± 0.00029 kPa
308.51 K	0.029 ± 0.00041 kPa
313.52 K	0.0454 ± 0.00058 kPa and 0.0455 ± 0.00058 kPa
